Experimental data: patent publication US20160297830A1, “NOVEL COMPOUNDS USEFUL FOR THE TREATMENT OF BACTERIAL INFECTIOUS DISEASES” (GALAPAGOS NV, priority 2013, published 2016)
Values after ≈ are worked out from the molar mass of the structure shown.

System: H. influenza Hi4 efflux pump KO
Experiment: Antibacterial activity assay (MIC), H. influenza Hi4
Assay type: cell-based

| Compound | MIC | MIC Hi4 efflux pump KO |
| --- | --- | --- |
| COC[C@@H]1[C@@H](O)[C@@H]2[C@H]3C=C[C@@H]4[C@@H](COC)C(=O)O[C@H]([C@H](O)COC)[C@H](C)/C=C(\C)[C@@]24O[C@H]3[C@@H]1OC(=O)c1ccc(C)[nH]1 [Compound 6, 8-O-5-Methyl-1H-pyrrole-2′-carbonylbranimycin] | 32 µg/mL (≈ 54.3 µM) | – |
| COC[C@@H]1[C@@H](O)[C@@H]2[C@H]3C=C[C@@H]4[C@@H](COC)C(=O)O[C@H]([C@H](O)COC)[C@H](C)/C=C(\C)[C@@]24O[C@H]3[C@@H]1OC(=O)c1cc(Br)c[nH]1 [Compound 32, 8-O-4-Bromo-1H-pyrrole-2′-carbonylbranimycin] | 4 µg/mL (≈ 6.11 µM) | – |
| COC[C@@H]1[C@@H](O)[C@@H]2[C@H]3C=C[C@@H]4[C@@H](COC)C(=O)O[C@H]([C@H](O)COC)[C@H](C)/C=C(\C)[C@@]24O[C@H]3[C@@H]1OC(=O)c1ccoc1C [Compound 11, 8-O-2-Methylfurane-3′-carbonylbranimycin] | 32 µg/mL (≈ 54.2 µM) | – |
| CO[C@H]1C[C@H]2C=C[C@H]3[C@H]4O[C@]2(/C(C)=C/[C@@H](C)[C@@H]([C@@H](C)O)OC1=O)[C@@H]3[C@H](O)[C@@H](C)[C@H]4OC(=O)c1ccc[nH]1 [Nargenicin A1, reference compound] | 0.5 µg/mL (≈ 0.97 µM) | – |
| COC[C@@H](O)[C@H]1OC(=O)[C@H](COC)[C@H]2C=C[C@H]3[C@H]4O[C@]2(/C(C)=C/[C@H]1C)[C@@H]3[C@H](O)[C@@H](C)[C@H]4OC(=O)c1cc(F)c[nH]1 [Compound 23, 8-O-4-Fluoro-1H-pyrrole-2′-carbonylbaleomycin] | 0.5 µg/mL (≈ 0.887 µM) | – |
| COCC(=NO)[C@H]1OC(=O)[C@H](COC)[C@H]2C=C[C@H]3[C@H]4O[C@]2(/C(C)=C/[C@H]1C)[C@@H]3[C@H](O)[C@@H](COC)[C@H]4OC(=O)c1cc(Cl)c[nH]1 [Compound 41, 18-Deoxy-18-oximino-8-O-4-Chloro-1H-pyrrole-2′-carbonylbranimycin] | 8 µg/mL (≈ 12.8 µM) | – |
| 8-O-4-Bromo-5-Chloro-1H-pyrrole-2′-carbonylbranimycin [Compound 35] | – | 16 µg/mL |
| COCC(=NOC(C)=O)[C@H]1OC(=O)[C@H](COC)[C@H]2C=C[C@H]3[C@H]4O[C@]2(/C(C)=C/[C@H]1C)[C@@H]3[C@H](O)[C@@H](COC)[C@H]4OC(=O)c1cc(Cl)c[nH]1 [Compound 42, 18-Acetylimino-18-deoxy-8-O-4-Chloro-1H-pyrrole-2′-carbonylbranimycin] | 4 µg/mL (≈ 6.01 µM) | – |
| COC[C@@H]1[C@@H](O)[C@@H]2[C@H]3C=C[C@@H]4[C@@H](COC)C(=O)O[C@H]([C@@H](COC)OC)[C@H](C)/C=C(\C)[C@@]24O[C@H]3[C@@H]1OC(=O)c1ccc[nH]1 [Compound 18, 17-O-Methyl-8-O-1H-pyrrole-2′-carbonylbranimycin] | 4 µg/mL (≈ 6.78 µM) | – |
| COC[C@@H]1[C@@H](O)[C@@H]2[C@H]3C=C[C@@H]4[C@@H](COC)C(=O)O[C@H]([C@H](O)COC)[C@H](C)/C=C(\C)[C@@]24O[C@H]3[C@@H]1OC(=O)c1cc(Br)c(Br)o1 [Compound 36, 8-O-4,5-Dibromofurane-2′-carbonylbranimycin] | 32 µg/mL (≈ 43.6 µM) | – |
| COC[C@@H](O)[C@H]1OC(=O)[C@H](COC)[C@H]2C=C[C@H]3[C@H]4O[C@]2(/C(C)=C/[C@H]1C)[C@@H]3[C@H](O)[C@@H](C)[C@H]4OC(=O)c1cc(Cl)c[nH]1 [Compound 30, 8-O-4-Chloro-1H-pyrrole-2′-carbonylbaleomycin] | 4 µg/mL (≈ 6.9 µM) | – |
| COC[C@@H]1[C@@H](O)[C@@H]2[C@H]3C=C[C@@H]4[C@@H](COC)C(=O)O[C@H]([C@H](O)COC)[C@H](C)/C=C(\C)[C@@]24O[C@H]3[C@@H]1OC(=O)c1ccc[nH]1 [Compound 2, 8-O-1H-pyrrole-2′-carbonylbranimycin] | 4 µg/mL (≈ 6.95 µM) | – |
| COCC(=NOC(C)=O)[C@H]1OC(=O)[C@H](COC)[C@H]2C=C[C@H]3[C@H]4O[C@]2(/C(C)=C/[C@H]1C)[C@@H]3[C@H](O)[C@@H](COC)[C@H]4OC(=O)c1ccc[nH]1 [Compound 29, 18-Acetylimino-18-deoxy-8-O-1H-pyrrole-2′-carbonylbranimycin] | 2 µg/mL (≈ 3.17 µM) | – |
| COC[C@@H]1[C@@H](O)[C@@H]2[C@H]3C=C[C@@H]4[C@@H](COC)C(=O)O[C@H](C(C)(O)COC)[C@H](C)/C=C(\C)[C@@]24O[C@H]3[C@@H]1OC(=O)c1ccc[nH]1 (stereo partly shown) [Compound 24, 17-Methyl-8-O-1H-pyrrole-2′-carbonylbranimycin] | 8 µg/mL (≈ 13.6 µM) | – |
| COC[C@@H]1[C@@H](O)[C@@H]2[C@H]3C=C[C@@H]4[C@@H](COC)C(=O)O[C@H]([C@H](O)COC)[C@H](C)/C=C(\C)[C@@]24O[C@H]3[C@@H]1OC(=O)c1cc(C)n[nH]1 [Compound 39, 8-O-5-Methyl-1H-Pyrazole-3′-carbonylbranimycin] | > 64 µg/mL | – |
| COC[C@@H](O)[C@H]1OC(=O)[C@H](COC)[C@H]2C=C[C@H]3[C@H]4O[C@]2(/C(C)=C/[C@H]1C)[C@@H]3[C@H](O)[C@@H](C)[C@H]4O [Compound 1, Baleomycin] | 2 µg/mL (≈ 4.42 µM) | – |
| COCC[C@H]1OC(=O)[C@H](COC)[C@H]2C=C[C@H]3[C@H]4O[C@]2(/C(C)=C/[C@H]1C)[C@@H]3[C@H](O)[C@@H](COC)[C@H]4O [Compound 17, 17-Deoxybranimycin] | 8 µg/mL (≈ 17.1 µM) | – |

| Compound | MIC | MIC Hi4 efflux pump KO |
| --- | --- | --- |
| COC[C@@H]1[C@@H](O)[C@@H]2[C@H]3C=C[C@@H]4[C@@H](COC)C(=O)O[C@H]([C@H](O)COC)[C@H](C)/C=C(\C)[C@@]24O[C@H]3[C@@H]1OC(=O)c1ccon1 [Compound 13, 8-O-Isoxazole-3′-carbonylbranimycin] | 16 µg/mL (≈ 27.7 µM) | – |
| CO[C@H]1C[C@H]2C=C[C@H]3[C@H]4O[C@]2(/C(C)=C/[C@@H](C)[C@@H]([C@@H](C)O)OC1=O)[C@@H]3[C@H](O)[C@@H](C)[C@H]4O [Nodusmicin, reference compound] | 2 µg/mL (≈ 4.73 µM) | – |
| COC[C@@H]1[C@@H](O)[C@@H]2[C@H]3C=C[C@@H]4[C@@H](COC)C(=O)O[C@H]([C@H](O)COC)[C@H](C)/C=C(\C)[C@@]24O[C@H]3[C@@H]1OC(=O)c1cc(F)c(F)[nH]1 [Compound 38, 8-O-4,5-Difluoro-1H-pyrrole-2′-carbonylbranimycin] | 16 µg/mL (≈ 26.2 µM) | – |
| COC[C@@H]1[C@@H](O)[C@@H]2[C@H]3C=C[C@@H]4[C@@H](COC)C(=O)O[C@H]([C@H](O)COC)[C@H](C)/C=C(\C)[C@@]24O[C@H]3[C@@H]1OC(=O)c1cnco1 [Compound 14, 8-O-Oxazole-5′ carbonylbranimycin] | 64 µg/mL (≈ 111 µM) | – |
| COC[C@@H]1[C@@H](O)[C@@H]2[C@H]3C=C[C@@H]4[C@@H](COC)C(=O)O[C@H]([C@H](O)COC)[C@H](C)/C=C(\C)[C@@]24O[C@H]3[C@@H]1OC(=O)c1cc(C#N)c[nH]1 [Compound 26, 8-O-4-Cyano-1H-pyrrole-2′-carbonylbranimycin] | 8 µg/mL (≈ 13.3 µM) | – |
| COC[C@@H]1[C@@H](O)[C@@H]2[C@H]3C=C[C@@H]4[C@@H](COC)C(=O)O[C@H]([C@H](O)COC)[C@H](C)/C=C(\C)[C@@]24O[C@H]3[C@@H]1OC(=O)c1cocn1 [Compound 8, 8-O-Oxazole-4′-carbonylbranimycin] | > 64 µg/mL | – |
| COC[C@@H]1[C@@H](O)[C@@H]2[C@H]3C=C[C@@H]4[C@@H](COC)C(=O)O[C@H]([C@H](O)COC)[C@H](C)/C=C(\C)[C@@]24O[C@H]3[C@@H]1OC(=O)c1ccsc1 [Compound 9, 8-O-Thiophene-3′-carbonylbranimycin] | 16 µg/mL (≈ 27 µM) | – |
| COC[C@@H]1[C@@H](O)[C@@H]2[C@H]3C=C[C@@H]4[C@@H](COC)C(=O)O[C@H]([C@H](O)COC)[C@H](C)/C=C(\C)[C@@]24O[C@H]3[C@@H]1OC(=O)c1cc(C)c[nH]1 [Compound 12, 8-O-4-Methyl-1H-pyrrole-2′-carbonylbranimycin] | 4 µg/mL (≈ 6.78 µM) | – |
| COC[C@@H](O)[C@H]1OC(=O)[C@H](COC)[C@H]2C=C[C@H]3[C@H]4O[C@]2(/C(C)=C/[C@H]1C)[C@@H]3[C@H](O)[C@@H](C)[C@H]4OC(=O)c1ccoc1 [Compound 7, 8-O-Furane-3′-carbonylbaleomycin] | 0.5 µg/mL (≈ 0.915 µM) | – |
| COC[C@@H]1[C@@H](O)[C@@H]2[C@H]3C=C[C@@H]4[C@@H](COC)C(=O)O[C@H]([C@H](O)COC)[C@H](C)/C=C(\C)[C@@]24O[C@H]3[C@@H]1OC(=O)c1cc(Br)c(F)[nH]1 [Compound 37, 8-O-4-Bromo-5-Fluoro-1H-pyrrole-2′-carbonylbranimycin] | 16 µg/mL (≈ 23.8 µM) | – |
| COC[C@@H]1[C@@H](O)[C@@H]2[C@H]3C=C[C@@H]4[C@@H](COC)C(=O)O[C@H]([C@H](O)COC)[C@H](C)/C=C(\C)[C@@]24O[C@H]3[C@@H]1OC(=O)c1cc(Br)c(Br)[nH]1 [Compound 34, 8-O-4,5-Dibromo-1H-pyrrole-2′-carbonylbranimycin] | 8 µg/mL (≈ 10.9 µM) | – |
| COC[C@@H]1[C@@H](O)[C@@H]2[C@H]3C=C[C@@H]4[C@@H](COC)C(=O)O[C@H]([C@H](O)COC)[C@H](C)/C=C(\C)[C@@]24O[C@H]3[C@@H]1OC(=O)c1ccoc1 [Compound 5, 8-O-Furane-3′-carbonylbranimycin] | 8 µg/mL (≈ 13.9 µM) | – |
| COC[C@@H]1[C@@H](O)[C@@H]2[C@H]3C=C[C@@H]4[C@@H](COC)C(=O)O[C@H]([C@H](O)COC)[C@H](C)/C=C(\C)[C@@]24O[C@H]3[C@@H]1OC(=O)c1cc[nH]n1 [Compound 10, 8-O-1H-Pyrazole-3′-carbonylbranimycin] | 32 µg/mL (≈ 55.5 µM) | – |
| COC[C@H]1[C@@H](O)[C@@H]2O[C@@]34/C(C)=C/[C@@H](C)[C@@H]([C@H](O)COC)OC(=O)[C@H](COC)[C@H]3C=C[C@@H]2[C@H]4[C@@H]1O [Branimycin, reference compound] | 4 µg/mL (≈ 8.29 µM) | – |
| COC[C@@H]1[C@@H](O)[C@@H]2[C@H]3C=C[C@@H]4[C@@H](COC)C(=O)O[C@H]([C@H](O)COC)[C@H](C)/C=C(\C)[C@@]24O[C@H]3[C@@H]1OC(=O)c1cc(Cl)c[nH]1 [Compound 28, 8-O-4-Chloro-1H-pyrrole-2′-carbonylbranimycin] | 4 µg/mL (≈ 6.56 µM) | – |
| COC[C@H]1[C@@H](O)[C@@H]2O[C@@]34/C(C)=C/[C@@H](C)[C@@H]([C@H](O)COC)OC(=O)[C@H](COC)[C@H]3CC[C@@H]2[C@H]4[C@@H]1O [Compound 15, 4,5-Dihydro-branimycin] | 64 µg/mL (≈ 132 µM) | – |
| COC[C@@H]1[C@@H](O)[C@@H]2[C@H]3C=C[C@@H]4[C@@H](COC)C(=O)OC[C@H](C)/C=C(\C)[C@@]24O[C@H]3[C@@H]1OC(=O)c1ccc[nH]1 [Compound 22, 17,18-Dinor-8-O-1H-pyrrole-2′-carbonybranimycin] | 32 µg/mL (≈ 63.8 µM) | – |
